Legend:
[1] = molecular target: Mitogen-activated protein kinase kinase kinase 7 (Homo sapiens) (UniProt O43318); assay: % Activity remaining of TAK1 in the Dundee kinase panel at 1.0 µM; conditions: Compound concentration 1.0 uM
[2] = molecular target: Serine/threonine-protein kinase WNK1 (Homo sapiens) (UniProt Q9H4A3); assay: % Activity remaining of WNK1 in the Dundee kinase panel at 1.0 µM; conditions: Compound concentration 1.0 uM
[3] = molecular target: MAP kinase-interacting serine/threonine-protein kinase 2 (Homo sapiens) (UniProt Q9HBH9); assay: % Activity remaining of MNK2 in the Dundee kinase panel at 1.0 µM; conditions: Compound concentration 1.0 uM
[4] = molecular target: Homeodomain-interacting protein kinase 3 (Homo sapiens) (UniProt Q9H422); assay: % Activity remaining of HIPK3 in the Dundee kinase panel at 1.0 µM; conditions: Compound concentration 1.0 uM
[5] = molecular target: Serine/threonine-protein kinase PAK 4 (Homo sapiens) (UniProt O96013); assay: % Activity remaining of PAK4 in the Dundee kinase panel at 1.0 µM; conditions: Compound concentration 1.0 uM
[6] = molecular target: Ephrin type-B receptor 4 (Homo sapiens) (UniProt P54760); assay: % Activity remaining of EPH-B4 in the Dundee kinase panel at 1.0 µM; conditions: Compound concentration 1.0 uM
[7] = molecular target: Tyrosine-protein kinase BTK (Homo sapiens) (UniProt Q06187); assay: % Activity remaining of BTK in the Dundee kinase panel at 1.0 µM; conditions: Compound concentration 1.0 uM
[8] = molecular target: Mitogen-activated protein kinase kinase kinase 11 (Homo sapiens) (UniProt Q16584); assay: % Activity remaining of MLK3 in the Dundee kinase panel at 1.0 µM; conditions: Compound concentration 1.0 uM
[9] = molecular target: Tyrosine-protein kinase JAK2 (Homo sapiens) (UniProt O60674); assay: % Activity remaining of JAK2 in the Dundee kinase panel at 1.0 µM; conditions: Compound concentration 1.0 uM
[10] = molecular target: MAP/microtubule affinity-regulating kinase 3 (Homo sapiens) (UniProt P27448); assay: % Activity remaining of MARK3 in the Dundee kinase panel at 1.0 µM; conditions: Compound concentration 1.0 uM
[11] = molecular target: RAC-alpha serine/threonine-protein kinase (Homo sapiens) (UniProt P31749); assay: % Activity remaining of PKB alpha in the Dundee kinase panel at 1.0 µM; conditions: Compound concentration 1.0 uM
[12] = molecular target: Ribosomal protein S6 kinase beta-1 (Homo sapiens, UniProt P23443); assay: % Activity remaining of S6K1 in the Dundee kinase panel at 1.0 µM; conditions: for % Activity remaining: Compound concentration 1.0 uM
[13] = molecular target: MAP kinase-activated protein kinase 2 (Homo sapiens) (UniProt P49137); assay: % Activity remaining of MAPKAP-K2 in the Dundee kinase panel at 1.0 µM; conditions: Compound concentration 1.0 uM
[14] = molecular target: Rho-associated protein kinase 2 (Homo sapiens) (UniProt O75116); assay: % Activity remaining of ROCK 2 in the Dundee kinase panel at 1.0 µM; conditions: Compound concentration 1.0 uM
[15] = molecular target: Mitogen-activated protein kinase 9 (Homo sapiens) (UniProt P45984); assay: % Activity remaining of JNK2 in the Dundee kinase panel at 1.0 µM; conditions: Compound concentration 1.0 uM
[16] = molecular target: Serine/threonine-protein kinase MARK2 (Homo sapiens) (UniProt Q7KZI7); assay: % Activity remaining of MARK2 in the Dundee kinase panel at 1.0 µM; conditions: Compound concentration 1.0 uM
[17] = molecular target: Ephrin type-B receptor 3 (Homo sapiens) (UniProt P54753); assay: % Activity remaining of EPH-B3 in the Dundee kinase panel at 1.0 µM; conditions: Compound concentration 1.0 uM
[18] = molecular target: Mitogen-activated protein kinase 8 (Homo sapiens) (UniProt P45983); assay: % Activity remaining of JNK1 in the Dundee kinase panel at 1.0 µM; conditions: Compound concentration 1.0 uM
[19] = molecular target: NUAK family SNF1-like kinase 1 (Homo sapiens) (UniProt O60285); assay: % Activity remaining of NUAK1 in the Dundee kinase panel at 1.0 µM; conditions: Compound concentration 1.0 uM
[20] = molecular target: Ribosomal protein S6 kinase alpha-1 (Homo sapiens) (UniProt Q15418); assay: % Activity remaining of RSK1 in the Dundee kinase panel at 1.0 µM; conditions: Compound concentration 1.0 uM
[21] = molecular target: Calcium/calmodulin-dependent protein kinase kinase 2 (Homo sapiens) (UniProt Q96RR4); assay: % Activity remaining of CAMKK beta in the Dundee kinase panel at 1.0 µM; conditions: Compound concentration 1.0 uM
[22] = molecular target: Maternal embryonic leucine zipper kinase (Homo sapiens) (UniProt Q14680); assay: % Activity remaining of MELK in the Dundee kinase panel at 1.0 µM; conditions: Compound concentration 1.0 uM
[23] = molecular target: Serine/threonine-protein kinase pim-2 (Homo sapiens) (UniProt Q9P1W9); assay: % Activity remaining of PIM2 in the Dundee kinase panel at 1.0 µM; conditions: Compound concentration 1.0 uM
[24] = molecular target: Dual specificity mitogen-activated protein kinase kinase 1 (Homo sapiens) (UniProt Q02750); assay: % Activity remaining of MKK1 in the Dundee kinase panel at 1.0 µM; conditions: Compound concentration 1.0 uM
[25] = molecular target: Tau-tubulin kinase 1 (Homo sapiens) (UniProt Q5TCY1); assay: % Activity remaining of TTBK1 in the Dundee kinase panel at 1.0 µM; conditions: Compound concentration 1.0 uM
[26] = molecular target: Dual specificity tyrosine-phosphorylation-regulated kinase 2 (Homo sapiens) (UniProt Q92630); assay: % Activity remaining of DYRK2 in the Dundee kinase panel at 1.0 µM; conditions: Compound concentration 1.0 uM
[27] = molecular target: Tyrosine-protein kinase CSK (Homo sapiens) (UniProt P41240); assay: % Activity remaining of CSK in the Dundee kinase panel at 1.0 µM; conditions: Compound concentration 1.0 uM
[28] = molecular target: Tyrosine-protein kinase Lck (Homo sapiens) (UniProt P06239); assay: % Activity remaining of Lck in the Dundee kinase panel at 1.0 µM; conditions: Compound concentration 1.0 uM
[29] = molecular target: Aurora kinase B (Homo sapiens) (UniProt Q96GD4); assay: % Activity remaining of Aurora B in the Dundee kinase panel at 1.0 µM; conditions: Compound concentration 1.0 uM
[30] = molecular target: Casein kinase I isoform delta (Homo sapiens) (UniProt P48730); assay: % Activity remaining of CK1 delta in the Dundee kinase panel at 1.0 µM; conditions: Compound concentration 1.0 uM
[31] = molecular target: Mitogen-activated protein kinase 10 (Homo sapiens) (UniProt P53779); assay: % Activity remaining of JNK3 in the Dundee kinase panel at 1.0 µM; conditions: Compound concentration 1.0 uM
[32] = molecular target: cAMP-dependent protein kinase catalytic subunit alpha (Homo sapiens) (UniProt P17612); assay: % Activity remaining of PKA in the Dundee kinase panel at 1.0 µM; conditions: Compound concentration 1.0 uM
[33] = molecular target: Ephrin type-A receptor 4 (Homo sapiens) (UniProt P54764); assay: % Activity remaining of EPH-A4 in the Dundee kinase panel at 1.0 µM; conditions: Compound concentration 1.0 uM
[34] = molecular target: Mitogen-activated protein kinase kinase kinase kinase 3 (Homo sapiens) (UniProt Q8IVH8); assay: % Activity remaining of MAP4K3 in the Dundee kinase panel at 1.0 µM; conditions: Compound concentration 1.0 uM
[35] = molecular target: Serine/threonine-protein kinase PLK1 (Homo sapiens) (UniProt P53350); assay: % Activity remaining of PLK1 in the Dundee kinase panel at 1.0 µM; conditions: Compound concentration 1.0 uM
[36] = molecular target: Proto-oncogene tyrosine-protein kinase Src (Homo sapiens) (UniProt P12931); assay: % Activity remaining of Src in the Dundee kinase panel at 1.0 µM; conditions: Compound concentration 1.0 uM
[37] = molecular target: Mitogen-activated protein kinase 1 (Homo sapiens) (UniProt P28482); assay: % Activity remaining of ERK2 in the Dundee kinase panel at 1.0 µM; conditions: Compound concentration 1.0 uM
[38] = molecular target: Fibroblast growth factor receptor 1 (Homo sapiens) (UniProt P11362); assay: % Activity remaining of FGF-R1 in the Dundee kinase panel at 1.0 µM; conditions: Compound concentration 1.0 uM
[39] = molecular target: Dual specificity tyrosine-phosphorylation-regulated kinase 1A (Homo sapiens) (UniProt Q13627); assay: % Activity remaining of DYRK1A in the Dundee kinase panel at 1.0 µM; conditions: Compound concentration 1.0 uM

Chain of Mitogen-activated protein kinase 1 (Homo sapiens) (P28482 whole entry): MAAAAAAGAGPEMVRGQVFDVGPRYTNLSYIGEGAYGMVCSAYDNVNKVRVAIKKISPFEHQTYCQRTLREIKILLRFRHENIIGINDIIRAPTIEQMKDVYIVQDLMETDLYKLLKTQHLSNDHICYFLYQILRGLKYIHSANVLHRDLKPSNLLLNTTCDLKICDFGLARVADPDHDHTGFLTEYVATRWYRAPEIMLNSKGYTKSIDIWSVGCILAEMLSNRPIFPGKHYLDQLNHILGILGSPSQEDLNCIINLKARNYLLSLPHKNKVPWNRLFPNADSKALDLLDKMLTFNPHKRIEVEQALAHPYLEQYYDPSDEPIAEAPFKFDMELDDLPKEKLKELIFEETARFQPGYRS
Chain of Proto-oncogene tyrosine-protein kinase Src (Homo sapiens) (P12931 2-536 limits assumed): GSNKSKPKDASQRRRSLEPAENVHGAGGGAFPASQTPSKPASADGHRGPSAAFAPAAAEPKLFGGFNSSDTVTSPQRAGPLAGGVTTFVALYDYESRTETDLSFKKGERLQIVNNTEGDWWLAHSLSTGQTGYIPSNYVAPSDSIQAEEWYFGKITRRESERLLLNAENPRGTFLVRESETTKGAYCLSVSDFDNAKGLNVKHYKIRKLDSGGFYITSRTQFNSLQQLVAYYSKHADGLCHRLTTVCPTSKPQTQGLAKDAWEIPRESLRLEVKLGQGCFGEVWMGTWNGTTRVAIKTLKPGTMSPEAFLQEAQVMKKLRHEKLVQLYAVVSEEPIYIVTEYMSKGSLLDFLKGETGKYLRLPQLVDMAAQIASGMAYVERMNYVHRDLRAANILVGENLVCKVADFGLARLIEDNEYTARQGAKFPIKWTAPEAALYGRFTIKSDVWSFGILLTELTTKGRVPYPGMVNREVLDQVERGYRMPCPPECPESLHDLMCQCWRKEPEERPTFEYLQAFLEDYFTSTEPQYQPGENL
Chain of Ephrin type-B receptor 4 (Homo sapiens) (P54760 whole entry): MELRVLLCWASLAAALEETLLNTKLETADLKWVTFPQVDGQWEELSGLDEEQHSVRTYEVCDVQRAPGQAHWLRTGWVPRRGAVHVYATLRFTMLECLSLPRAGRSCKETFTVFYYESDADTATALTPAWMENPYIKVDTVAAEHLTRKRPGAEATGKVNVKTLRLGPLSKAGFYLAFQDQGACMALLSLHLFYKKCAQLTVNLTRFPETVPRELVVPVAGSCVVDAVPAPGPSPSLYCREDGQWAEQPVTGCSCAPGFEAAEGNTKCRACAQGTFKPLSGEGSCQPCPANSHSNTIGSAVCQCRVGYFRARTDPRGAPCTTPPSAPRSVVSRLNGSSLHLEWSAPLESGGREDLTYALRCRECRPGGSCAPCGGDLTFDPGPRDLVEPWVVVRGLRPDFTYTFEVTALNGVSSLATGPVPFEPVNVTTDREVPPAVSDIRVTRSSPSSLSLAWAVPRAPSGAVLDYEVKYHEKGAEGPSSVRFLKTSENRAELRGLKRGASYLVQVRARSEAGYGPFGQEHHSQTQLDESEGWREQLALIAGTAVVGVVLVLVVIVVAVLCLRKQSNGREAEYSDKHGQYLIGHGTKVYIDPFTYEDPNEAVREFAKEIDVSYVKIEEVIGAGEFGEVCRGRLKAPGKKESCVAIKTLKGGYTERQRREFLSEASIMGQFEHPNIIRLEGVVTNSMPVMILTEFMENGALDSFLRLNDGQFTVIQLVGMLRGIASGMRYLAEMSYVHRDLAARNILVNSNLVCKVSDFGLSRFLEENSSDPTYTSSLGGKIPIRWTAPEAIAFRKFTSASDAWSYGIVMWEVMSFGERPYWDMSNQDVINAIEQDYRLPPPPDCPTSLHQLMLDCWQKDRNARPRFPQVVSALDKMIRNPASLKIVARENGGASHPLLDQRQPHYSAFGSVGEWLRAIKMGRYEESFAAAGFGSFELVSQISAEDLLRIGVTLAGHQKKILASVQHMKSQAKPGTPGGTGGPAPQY
Chain of MAP kinase-activated protein kinase 2 (Homo sapiens) (P49137 whole entry, looked up): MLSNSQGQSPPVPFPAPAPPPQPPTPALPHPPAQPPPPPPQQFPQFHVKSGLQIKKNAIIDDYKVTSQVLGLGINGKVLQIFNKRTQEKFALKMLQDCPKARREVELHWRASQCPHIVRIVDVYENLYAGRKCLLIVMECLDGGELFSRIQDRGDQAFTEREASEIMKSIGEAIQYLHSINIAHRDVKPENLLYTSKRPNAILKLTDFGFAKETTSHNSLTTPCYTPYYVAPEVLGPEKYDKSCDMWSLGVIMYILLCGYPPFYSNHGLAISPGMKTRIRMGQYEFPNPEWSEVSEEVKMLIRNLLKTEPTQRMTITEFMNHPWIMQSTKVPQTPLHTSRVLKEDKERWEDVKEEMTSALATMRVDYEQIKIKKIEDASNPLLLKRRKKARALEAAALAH
Chain of Aurora kinase B (Homo sapiens) (Q96GD4 whole entry, canonical isoform): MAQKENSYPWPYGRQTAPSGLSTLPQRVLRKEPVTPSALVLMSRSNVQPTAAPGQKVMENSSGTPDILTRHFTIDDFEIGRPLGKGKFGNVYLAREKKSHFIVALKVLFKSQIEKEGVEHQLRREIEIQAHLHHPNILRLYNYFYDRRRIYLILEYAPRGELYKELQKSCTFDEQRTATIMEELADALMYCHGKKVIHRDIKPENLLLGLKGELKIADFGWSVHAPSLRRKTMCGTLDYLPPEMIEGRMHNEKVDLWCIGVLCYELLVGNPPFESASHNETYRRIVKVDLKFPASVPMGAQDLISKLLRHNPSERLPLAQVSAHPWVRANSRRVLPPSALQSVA
Chain of Tau-tubulin kinase 1 (Homo sapiens) (Q5TCY1 whole entry): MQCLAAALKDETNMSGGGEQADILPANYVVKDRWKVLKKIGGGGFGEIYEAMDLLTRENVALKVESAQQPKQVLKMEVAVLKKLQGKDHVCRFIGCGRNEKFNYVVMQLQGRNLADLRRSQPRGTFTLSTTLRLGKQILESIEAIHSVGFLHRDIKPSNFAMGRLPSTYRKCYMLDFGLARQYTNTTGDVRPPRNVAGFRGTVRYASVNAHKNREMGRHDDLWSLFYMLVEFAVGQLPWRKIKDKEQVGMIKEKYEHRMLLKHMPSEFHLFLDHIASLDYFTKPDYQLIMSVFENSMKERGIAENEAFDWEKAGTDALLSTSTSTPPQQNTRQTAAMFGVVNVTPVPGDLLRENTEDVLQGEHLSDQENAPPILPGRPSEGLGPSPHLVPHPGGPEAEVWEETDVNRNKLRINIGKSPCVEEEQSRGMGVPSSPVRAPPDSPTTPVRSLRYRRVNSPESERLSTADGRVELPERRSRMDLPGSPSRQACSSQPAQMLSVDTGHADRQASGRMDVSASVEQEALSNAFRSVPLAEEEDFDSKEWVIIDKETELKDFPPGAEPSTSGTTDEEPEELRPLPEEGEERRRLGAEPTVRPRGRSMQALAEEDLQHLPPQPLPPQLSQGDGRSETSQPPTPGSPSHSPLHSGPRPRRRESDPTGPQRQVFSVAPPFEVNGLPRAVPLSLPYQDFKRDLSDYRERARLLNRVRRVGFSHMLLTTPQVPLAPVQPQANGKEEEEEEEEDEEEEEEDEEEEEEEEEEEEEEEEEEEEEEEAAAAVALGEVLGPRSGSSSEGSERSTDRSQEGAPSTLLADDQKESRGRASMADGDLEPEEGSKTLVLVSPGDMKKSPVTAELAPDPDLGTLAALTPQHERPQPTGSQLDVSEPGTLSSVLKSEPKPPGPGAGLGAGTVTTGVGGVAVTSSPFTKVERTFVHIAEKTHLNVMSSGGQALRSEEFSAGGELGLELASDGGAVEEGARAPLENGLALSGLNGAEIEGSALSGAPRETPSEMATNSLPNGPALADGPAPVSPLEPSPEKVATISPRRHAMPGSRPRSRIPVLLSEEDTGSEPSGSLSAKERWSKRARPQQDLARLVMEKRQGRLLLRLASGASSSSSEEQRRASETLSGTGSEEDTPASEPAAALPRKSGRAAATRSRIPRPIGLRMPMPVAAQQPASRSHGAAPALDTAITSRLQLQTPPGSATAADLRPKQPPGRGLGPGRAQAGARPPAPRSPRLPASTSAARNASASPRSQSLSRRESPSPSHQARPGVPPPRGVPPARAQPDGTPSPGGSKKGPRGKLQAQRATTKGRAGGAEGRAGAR
Chain of Mitogen-activated protein kinase 8 (Homo sapiens) (P45983 whole entry): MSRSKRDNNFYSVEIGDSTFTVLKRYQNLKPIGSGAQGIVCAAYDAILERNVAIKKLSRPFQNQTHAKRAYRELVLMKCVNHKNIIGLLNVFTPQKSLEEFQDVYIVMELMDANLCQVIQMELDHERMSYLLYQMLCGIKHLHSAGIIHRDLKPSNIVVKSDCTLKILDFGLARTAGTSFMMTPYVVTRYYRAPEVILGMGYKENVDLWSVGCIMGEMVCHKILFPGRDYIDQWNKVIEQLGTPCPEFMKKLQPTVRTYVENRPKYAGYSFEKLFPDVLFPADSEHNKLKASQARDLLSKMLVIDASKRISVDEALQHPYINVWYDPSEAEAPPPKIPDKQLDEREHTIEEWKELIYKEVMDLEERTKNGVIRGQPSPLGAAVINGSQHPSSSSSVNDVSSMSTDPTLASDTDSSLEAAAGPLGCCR
Chain of Tyrosine-protein kinase BTK (Homo sapiens) (Q06187 whole entry): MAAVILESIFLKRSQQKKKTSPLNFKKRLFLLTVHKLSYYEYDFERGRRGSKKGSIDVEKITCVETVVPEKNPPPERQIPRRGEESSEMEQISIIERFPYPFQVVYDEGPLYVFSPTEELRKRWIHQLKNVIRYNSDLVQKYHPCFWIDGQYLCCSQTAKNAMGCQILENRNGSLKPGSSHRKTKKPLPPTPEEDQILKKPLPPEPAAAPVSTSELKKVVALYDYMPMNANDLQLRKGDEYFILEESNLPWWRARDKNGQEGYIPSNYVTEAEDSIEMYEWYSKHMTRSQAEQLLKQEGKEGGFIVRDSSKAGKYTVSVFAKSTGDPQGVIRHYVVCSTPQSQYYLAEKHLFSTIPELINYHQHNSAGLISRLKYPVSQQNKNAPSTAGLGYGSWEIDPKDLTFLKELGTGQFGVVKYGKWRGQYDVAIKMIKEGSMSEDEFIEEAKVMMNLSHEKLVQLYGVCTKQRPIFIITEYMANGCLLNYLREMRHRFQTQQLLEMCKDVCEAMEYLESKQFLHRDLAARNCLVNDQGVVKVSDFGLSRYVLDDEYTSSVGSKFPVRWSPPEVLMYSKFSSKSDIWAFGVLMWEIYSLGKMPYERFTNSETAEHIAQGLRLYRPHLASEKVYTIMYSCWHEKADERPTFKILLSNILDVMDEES

Row | Compound | % Activity remaining [1] | % Activity remaining [2] | % Activity remaining [3] | % Activity remaining [4] | % Activity remaining [5] | % Activity remaining [6] | % Activity remaining [7] | % Activity remaining [8] | % Activity remaining [9] | % Activity remaining [10] | % Activity remaining [11] | IC50 [12] | % Activity remaining [12] | % Activity remaining [13] | % Activity remaining [14] | % Activity remaining [15] | % Activity remaining [16] | % Activity remaining [17] | % Activity remaining [18] | % Activity remaining [19] | further results
1 | Cc1ccc(F)c(S(=O)(=O)Nc2ccc(-c3nc(OC[C@H]4CN(CCCCCCOCCOCCOCC(=O)N[C@H](C(=O)N5C[C@H](O)C[C@H]5C(=O)NCc5ccc(-c6scnc6C)cc5)C(C)(C)C)CCO4)c4cn[nH]c4n3)cc2)c1 | 108% | 93.8% | 122% | 111% | 81.1% | 107% | 96.9% | 70.5% | 95.4% | 98.4% | 105% | 1800 nM | 19% | 85.8% | 113% | 117% | 102% | 91.6% | 117% | 98% | % Activity remaining [20]: 83.2%; % Activity remaining [21]: 98.9%; % Activity remaining [22]: 91.5%; % Activity remaining [23]: 98.2%; % Activity remaining [24]: 106%; % Activity remaining [25]: 105%; % Activity remaining [26]: 102%; % Activity remaining [27]: 118%; % Activity remaining [28]: 124%; % Activity remaining [29]: 92.5%; % Activity remaining [30]: 95%; % Activity remaining [31]: 92.1%; % Activity remaining [32]: 108%; % Activity remaining [33]: 106%; % Activity remaining [34]: 98.8%; % Activity remaining [35]: 97.9%; % Activity remaining [36]: 83.4%; % Activity remaining [37]: 104%; % Activity remaining [38]: 108%; % Activity remaining [39]: 105%
2 | Cc1ccc(F)c(S(=O)(=O)Nc2ccc(-c3nc(OC[C@H]4CN(CCCCCCOCCOCCOCC(=O)N[C@H](C(=O)N5C[C@@H](O)C[C@H]5C(=O)NCc5ccc(-c6scnc6C)cc5)C(C)(C)C)CCO4)c4cn[nH]c4n3)cc2)c1 | 107% | 96.6% | 122% | 105% | 113% | 108% | 90.6% | 75.6% | 93.6% | 109% | 117% | 1700 nM | 20.2% | 91.7% | 119% | 109% | 112% | 104% | 119% | 90% | % Activity remaining [20]: 90.2%; % Activity remaining [21]: 108%; % Activity remaining [22]: 99.5%; % Activity remaining [23]: 105%; % Activity remaining [24]: 102%; % Activity remaining [25]: 113%; % Activity remaining [26]: 97.3%; % Activity remaining [27]: 113%; % Activity remaining [28]: 116%; % Activity remaining [29]: 94.7%; % Activity remaining [30]: 108%; % Activity remaining [31]: 82.5%; % Activity remaining [32]: 111%; % Activity remaining [33]: 89.4%; % Activity remaining [34]: 95.5%; % Activity remaining [35]: 98.4%; % Activity remaining [36]: 86.8%; % Activity remaining [37]: 95.2%; % Activity remaining [38]: 106%; % Activity remaining [39]: 99%

From ChEMBL document CHEMBL5463727, “Data for DCP probe SGK3-PROTAC1” (2023)
